Where two headings read alike, the source gives them in different places.
Key:
[1] = biological target: T1, recombinant soluble tissue factor and recombinant human factor VIIa (TF-VIIa) (Homo sapiens, UniProt P08709); assay: TF-VIIa Assay; assay type: biochemical; details: for IC50: read-out: IC50 TF-VIIa
T1 construct: conversion of coagulation factor VII to VIIa by Xa; purchased American Diagnostica, Greenwich Conn; host or cells: VIIa purchased; soluble TF made in house in E. coli

Human factor Xa = Human factor Xa (Homo sapiens, UniProt P00742); assay: Xa Assay; assay type: biochemical; design: purchased Enzyme Research Laboratories, South Bend Ind; details: for inhibition at 100 µM: at 100 μM inhibitor
Human factor Xa, sequence (P00742 41-179 limits assumed): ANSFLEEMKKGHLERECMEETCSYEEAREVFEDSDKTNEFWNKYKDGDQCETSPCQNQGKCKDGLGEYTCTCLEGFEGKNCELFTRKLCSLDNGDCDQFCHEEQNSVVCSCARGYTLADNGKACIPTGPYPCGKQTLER
Human factor Xa, sequence (P00742 235-488 limits assumed): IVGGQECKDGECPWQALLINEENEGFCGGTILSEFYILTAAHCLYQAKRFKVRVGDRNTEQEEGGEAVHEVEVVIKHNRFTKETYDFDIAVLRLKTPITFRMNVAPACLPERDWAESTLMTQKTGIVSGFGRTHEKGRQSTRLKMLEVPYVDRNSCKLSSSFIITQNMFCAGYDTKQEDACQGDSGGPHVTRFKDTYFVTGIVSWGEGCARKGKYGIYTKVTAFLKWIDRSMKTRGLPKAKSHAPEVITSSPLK

T1 sequence (P08709 61-212 limits assumed): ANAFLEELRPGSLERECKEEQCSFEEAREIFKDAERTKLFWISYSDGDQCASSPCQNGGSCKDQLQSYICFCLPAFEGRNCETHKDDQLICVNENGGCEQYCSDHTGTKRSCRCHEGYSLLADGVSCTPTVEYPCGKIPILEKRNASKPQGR
T1 sequence (P08709 213-466 limits assumed): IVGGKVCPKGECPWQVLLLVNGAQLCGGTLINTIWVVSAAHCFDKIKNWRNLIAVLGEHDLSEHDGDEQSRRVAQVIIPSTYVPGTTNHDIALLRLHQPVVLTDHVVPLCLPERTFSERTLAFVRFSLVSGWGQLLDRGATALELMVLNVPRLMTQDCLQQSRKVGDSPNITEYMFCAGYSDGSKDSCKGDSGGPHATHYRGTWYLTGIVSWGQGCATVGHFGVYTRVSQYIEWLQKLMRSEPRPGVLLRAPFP
T1 sequence (P13726 33-251 partner limits assumed): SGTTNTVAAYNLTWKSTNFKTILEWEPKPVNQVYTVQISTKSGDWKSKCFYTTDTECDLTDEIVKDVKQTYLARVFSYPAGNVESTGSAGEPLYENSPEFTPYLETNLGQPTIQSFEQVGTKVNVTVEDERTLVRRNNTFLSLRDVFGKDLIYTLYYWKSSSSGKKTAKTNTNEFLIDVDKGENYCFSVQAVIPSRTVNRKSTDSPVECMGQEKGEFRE

| Structure (SMILES) | % Inhibition TF-VIIa (100 µM) ([1]; inhibitor at 100 µM) [%] | % Inhibition Factor Xa (100 µM) (Human factor Xa; inhibitor at 100 µM) [%] | further results |
| --- | --- | --- | --- |
| N=C(N)c1ccc(CNC(=O)Cn2c(-c3ccc4c(c3)OCO4)c(Cl)nc(NCCN3CCOCC3)c2=O)cc1 [1471-44] |  |  | % Inhibition TF-VIIa (30 µM) ([1]; at 30 µM inhibitor): 34%; % Inhibition Factor Xa (30 µM) (Human factor Xa; at 30 µM inhibitor): 13% |
| Nc1cccc(-c2c(Cl)nc(NC3CCC3)c(=O)n2CC(=O)NCCc2ccccc2)c1 [Example 89] |  |  | % Inhibition TF-VIIa (30 µM) ([1]; at 30 µM inhibitor): 5% @ 30; % Inhibition Factor Xa (30 µM) (Human factor Xa; at 30 µM inhibitor): 5% @ 30 |
| O=C(Cn1c(-c2cccc(Cl)c2)c(Cl)nc(NCc2ccccc2)c1=O)NCCc1ccncc1 [Example E-0085] | 0 | 0 |  |
| COc1ccc(-c2c(Cl)nc(NCCc3cccnc3)c(=O)n2CC(=O)NCc2ccc(C(=N)N)cc2)cc1 [1471-40] |  |  | % Inhibition TF-VIIa (30 µM) ([1]; at 30 µM inhibitor): 40%; % Inhibition Factor Xa (30 µM) (Human factor Xa; at 30 µM inhibitor): 11% |
| Cc1cc(Cl)cc(Cl)c1CNc1nc(Cl)c(-c2ccccc2)n(CC(=O)NCc2ccc(C(=N)N)cc2)c1=O [1512-45] |  |  | % Inhibition TF-VIIa (30 µM) ([1]; at 30 µM inhibitor): 27%; % Inhibition Factor Xa (30 µM) (Human factor Xa; at 30 µM inhibitor): 11% |
| N=C(N)NCC#CCNC(=O)Cn1c(-c2ccccc2)cnc(NCCc2ccccc2)c1=O [Example 36] |  |  | % Inhibition TF-VIIa (30 µM) ([1]; at 30 µM inhibitor): 5%; % Inhibition Factor Xa (30 µM) (Human factor Xa; at 30 µM inhibitor): 0% |
| O=C(Cn1c(-c2cccc(Cl)c2)c(Cl)nc(NCCc2ccccc2)c1=O)NCCc1cccnc1 [Example E-0077] | 0 | 3 |  |
| O=C(Cn1c(-c2ccc(Cl)cc2)c(Cl)nc(NCCN2CCOCC2)c1=O)NCCc1ccncc1 [Example E-0023] | 0 | 0 |  |
| O=C(Cn1c(-c2ccccc2)c(Cl)nc(NCCN2CCOCC2)c1=O)NCCc1ccncc1 [Example E-0015] | 0 | 0 |  |
| O=C(Cn1c(-c2ccc(Cl)cc2)c(Cl)nc(NCCc2cccnc2)c1=O)NCCc1ccncc1 [Example E-0029] | 0 | 0 |  |
| O=C(Cn1c(CCc2ccccc2)c(Cl)nc(NCc2ccncc2)c1=O)NCCc1ccncc1 [Example E-0072] | 0 | 0 |  |
| CC(C)Nc1nc(Cl)c(-c2cc(N)cc(C(=O)NCc3ccc(C(C)(C)C)cc3)c2)n(CC(=O)NCc2ccc(C(=N)N)cc2)c1=O [Example 128-7] |  |  | IC50 [1]: 242 nM; inhibition at 100 µM (Human factor Xa): 40% |
| O=C(Cn1c(-c2ccc(Cl)cc2)c(Cl)nc(NCCc2ccc(Cl)cc2)c1=O)NCCc1ccncc1 [Example E-0020] | 0 | 1 |  |
| O=C(Cn1c(-c2ccc(-c3ccccc3)cc2)c(Cl)nc(NCCc2ccccc2)c1=O)NCCc1ccncc1 [Example E-0050] |  |  | % Inhibition TF-VIIa (100 µM) [1]: 0%; % Inhibition Factor Xa (100 µM) (Human factor Xa): 0% |
| O=C(Cn1c(CCc2ccccc2)c(Cl)nc(NCCc2cccc(Cl)c2)c1=O)NCCc1ccncc1 [Example E-0067] | 0 | 0 |  |
| Cc1c(Cl)nc(NCc2ccccc2)c(=O)n1CC(=O)NCCc1ccncc1 [Example E-0001] | 0 | 1 |  |
| O=C(Cn1c(-c2ccc3c(c2)OCO3)c(Cl)nc(NCCc2ccc(Cl)cc2)c1=O)NCCc1ccncc1 [Example E-0044] | 0 | 0 |  |
| NC1=NCCSc2cc(CNC(=O)Cn3c(-c4cccc(N)c4)c(Cl)nc(NC4CCC4)c3=O)ccc21 [Example 154] |  |  | inhibition at 30 µM ([1]; 1 h, at 30 µM inhibitor): 7%; % Inhibition Factor Xa (30 µM) (Human factor Xa; at 30 µM inhibitor): 6% |
| N=C(N)c1ccc(CNC(=O)Cn2c(-c3ccc(-c4ccccc4)cc3)c(Cl)nc(NCCc3cccc(Cl)c3)c2=O)cc1 [1471-70] |  |  | % Inhibition TF-VIIa (30 µM) ([1]; at 30 µM inhibitor): 10%; % Inhibition Factor Xa (30 µM) (Human factor Xa; at 30 µM inhibitor): 12% |
| N=C(N)c1ccc(CNC(=O)Cn2c(-c3ccc(Cl)cc3)c(Cl)nc(NCc3ccncc3)c2=O)cc1 [1471-19] |  |  | % Inhibition TF-VIIa (30 µM) ([1]; at 30 µM inhibitor): 33%; % Inhibition Factor Xa (30 µM) (Human factor Xa; at 30 µM inhibitor): 26% |
| Cc1c(Cl)nc(NCCc2cccnc2)c(=O)n1CC(=O)NCCc1ccncc1 [Example E-0005] | 0 | 0 |  |
| CC(C)CNC(=O)c1cc(N)cc(-c2c(Cl)nc(NC(C)C)c(=O)n2CC(=O)NCc2ccc(C(=N)N)cc2)c1 [Example 128-14] |  |  | IC50 [1]: 7.4 nM; inhibition at 100 µM (Human factor Xa): 24% |
| O=C(Cn1c(-c2ccccc2)c(Cl)nc(NCCc2cccc(Cl)c2)c1=O)NCCc1ccncc1 [Example E-0011] | 0 | 0 |  |
| O=C(Cn1c(CCc2ccccc2)c(Cl)nc(NCCN2CCOCC2)c1=O)NCCc1ccncc1 [Example E-0071] | 0 | 0 |  |
| O=C(Cn1c(-c2ccc(Cl)cc2)c(Cl)nc(NCCc2cccnc2)c1=O)NCCc1ccncc1 [Example E-0021] | 0 | 1 |  |
| O=C(Cn1c(-c2ccc(-c3ccccc3)cc2)c(Cl)nc(NCCc2ccc(Cl)cc2)c1=O)NCCc1ccncc1 [Example E-0052] |  |  | % Inhibition TF-VIIa (100 µM) [1]: 0%; % Inhibition Factor Xa (100 µM) (Human factor Xa): 0% |

| Structure (SMILES) | % Inhibition TF-VIIa (100 µM) ([1]; inhibitor at 100 µM) [%] | % Inhibition Factor Xa (100 µM) (Human factor Xa; inhibitor at 100 µM) [%] | further results |
| --- | --- | --- | --- |
| COc1ccc(-c2c(Cl)nc(NCCc3ccc(Cl)cc3)c(=O)n2CC(=O)NCCc2ccncc2)cc1 [Example E-0106] | 5 | 3 |  |
| O=C(Cn1c(CCc2ccccc2)c(Cl)nc(NCc2ccccc2)c1=O)NCCc1ccncc1 [Example E-0065] | 0 | 0 |  |
| O=C(Cn1c(-c2ccc(-c3ccccc3)cc2)c(Cl)nc(NCCN2CCOCC2)c1=O)NCCc1ccncc1 [Example E-0055] |  |  | % Inhibition TF-VIIa (100 µM) [1]: 0%; % Inhibition Factor Xa (100 µM) (Human factor Xa): 0% |
| Cc1c(Cl)nc(NCCc2cccc(Cl)c2)c(=O)n1CC(=O)NCCc1ccncc1 [Example E-0003] | 0 | 0 |  |
| O=C(Cn1c(-c2ccccc2)c(Cl)nc(NCc2ccncc2)c1=O)NCCc1ccncc1 [Example E-0016] | 0 | 0 |  |
| N=C(N)c1ccc(CNC(=O)Cn2c(-c3ccccc3)c(Cl)nc(NCc3c(F)cccc3C(F)(F)F)c2=O)cc1 [1512-44] |  |  | % Inhibition TF-VIIa (30 µM) ([1]; at 30 µM inhibitor): 43%; % Inhibition Factor Xa (30 µM) (Human factor Xa; at 30 µM inhibitor): 6% |
| N=C(N)c1ccc(CNC(=O)C(Cc2ccccc2)n2c(-c3ccccc3)c(Cl)nc(NCCc3ccccc3)c2=O)cc1 (centres unmarked) [Example 1517-14] |  |  | % Inhibition TF-VIIa (30 µM) ([1]; at 30 µM): 30%; % Inhibition Factor Xa (30 µM) (Human factor Xa; at 30 µM): 0% |
| COc1ccc(-c2c(Cl)nc(NCCc3ccc(Cl)cc3)c(=O)n2CC(=O)NCCc2cccnc2)cc1 [Example E-0107] | 4 | 6 |  |
| N=C(N)c1ccc(CNC(=O)Cn2c(-c3ccccc3)c(Cl)nc(NC3Cc4ccccc4C3)c2=O)cc1 [1507-08] |  |  | % Inhibition TF-VIIa (30 µM) ([1]; at 30 µM inhibitor): 7%; % Inhibition Factor Xa (30 µM) (Human factor Xa; at 30 µM inhibitor): 1% |
| O=C(Cn1c(CCc2ccccc2)c(Cl)nc(NCCc2cccnc2)c1=O)NCCc1ccncc1 [Example E-0069] | 0 | 0 |  |
| N=C(N)c1ccc(C(=O)NCCn2c(-c3cccc(N)c3)c(Cl)nc(NC3CCC3)c2=O)cc1 [Example 136] |  |  | IC50 [1]: 10700 nM; inhibition at 100 µM (Human factor Xa): 15% |
| O=C(Cn1c(Cc2ccccc2)c(Cl)nc(NCCc2ccc(Cl)cc2)c1=O)NCCc1ccncc1 [Example E-0060] | 0 | 0 |  |
| Cc1c(Cl)nc(NCCc2ccc(Cl)cc2)c(=O)n1CC(=O)NCCc1ccncc1 [Example E-0004] | 0 | 0 |  |
| O=C(Cn1c(-c2cccc(Cl)c2)c(Cl)nc(NCc2ccccc2)c1=O)NCCc1cccnc1 [Example E-0086] | 0 | 4 |  |
| O=C(Cn1c(-c2ccc(-c3ccccc3)cc2)c(Cl)nc(NCCc2ccc(Cl)cc2)c1=O)NCCc1ccncc1 [Example E-0118] |  |  | % Inhibition TF-VIIa (100 µM) [1]: 12%; % Inhibition Factor Xa (100 µM) (Human factor Xa): 3% |
| CCCCNc1nc(Cl)c(-c2ccccc2)n(CC(=O)NCc2ccc(C(=N)N)cc2)c1=O [Example 1517-35] |  |  | % Inhibition TF-VIIa (30 µM) ([1]; at 30 µM): 33%; % Inhibition Factor Xa (30 µM) (Human factor Xa; at 30 µM): 0% |
| COc1ccc(-c2c(Cl)nc(NCc3ccccc3)c(=O)n2CC(=O)NCc2ccc(C(=N)N)cc2)cc1 [1471-33] |  |  | % Inhibition TF-VIIa (30 µM) ([1]; at 30 µM inhibitor): 31%; % Inhibition Factor Xa (30 µM) (Human factor Xa; at 30 µM inhibitor): 22% |
| N=C(N)c1ccc(CNC(=O)C(Cc2ccccc2)n2c(-c3ccccc3)c(Cl)nc(NC3CCC3)c2=O)cc1 (centres unmarked) [Example 1517-08] |  |  | % Inhibition TF-VIIa (30 µM) ([1]; at 30 µM inhibitor): 43%; % Inhibition Factor Xa (30 µM) (Human factor Xa; at 30 µM inhibitor): 0% |
| O=C(Cn1c(-c2cccc(Cl)c2)c(Cl)nc(NCCc2ccccc2)c1=O)NCCc1ccncc1 [Example E-0076] | 0 | 1 |  |
| COc1ccc(-c2c(Cl)nc(NCCc3cccc(Cl)c3)c(=O)n2CC(=O)NCCc2ccncc2)cc1 [Example E-0103] | 2 | 3 |  |
| O=C(Cn1c(Cc2ccccc2)c(Cl)nc(NCCc2cccc(Cl)c2)c1=O)NCCc1ccncc1 [Example E-0059] | 0 | 0 |  |
| COc1ccc(-c2c(Cl)nc(NCCc3ccc(Cl)cc3)c(=O)n2CC(=O)NCCc2ccncc2)cc1 [Example E-0036] | 0 | 0 |  |
| O=C(Cn1c(Cc2ccccc2)c(Cl)nc(NCCN2CCOCC2)c1=O)NCCc1ccncc1 [Example E-0063] | 0 | 0 |  |
| O=C(Cn1c(Cc2ccccc2)c(Cl)nc(NCCc2ccccc2)c1=O)NCCc1ccncc1 [Example E-0058] | 0 | 0 |  |
| N=C(N)c1ccc(CNC(=O)Cn2c(-c3ccc(-c4ccccc4)cc3)c(Cl)nc(NCCc3cccnc3)c2=O)cc1 [1471-72] |  |  | % Inhibition TF-VIIa (30 µM) ([1]; at 30 µM inhibitor): 15%; % Inhibition Factor Xa (30 µM) (Human factor Xa; at 30 µM inhibitor): 22% |
| O=C(Cn1c(CCc2ccccc2)c(Cl)nc(NCCc2ccncc2)c1=O)NCCc1ccncc1 [Example E-0070] | 0 | 0 |  |

Source: patent US6908919B2, “Substituted polycyclic aryl and heteroaryl pyrazinones useful for selective inhibition of the coagulation cascade” (Pharmacia Corporation, priority 1999, dated 2005)
